Drawing on PubChem BioAssay (NCI), this text covers GI50 and TGI for eight compounds.

What all share (assay): NCI tumour cell line growth inhibition, 48 h
Test [1] deals with UACC-62 melanoma.
For test [2], the system named is HS 578T breast.
Test [3] concerns NCI/ADR-RES ovarian.
For test [4], the system named is MCF7 breast.
In test [5] the test system is SF-539 CNS.
Test [6] relates to SR leukemia.
Test [7] relates to ACHN renal.
Test [8] relates to MOLT-4 leukemia.
The test system of test [9] is NCI-H23 lung.
The subject of test [10] is HL-60(TB) leukemia.

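Interpolation was linear, between the two tested concentrations surrounding the appropriate level; five concentrations were tested over 48 hours in 96-well plates. At the GI50, growth is halved. TGI marks complete inhibition of growth.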

In the case of `COc1cc[nH]c1/C=C1\C(=O)Nc2ccc(F)c(I)c21`, the GI50 in [1], in [2], in test [3], in [4], in test [5] and in test [6] was greater than 25 µM throughout. Also, the GI50 was greater than 25 µM in test [7], greater than 25000 nM in test [8], greater than 25 µM in [9] and greater than 25 µM in [10]. For the same compound, the TGI in [1], in test [2], in [3], in test [4], in test [5] and in test [6] was greater than 25 µM each time. The TGI in test [7], in test [8], in [9] and in test [10] was greater than 25 µM each time.

For the compound `O=C1C(Cl)=C(Nc2cccc(O)c2)C(=O)N1c1cc(Cl)c(Cl)cc1Cl`, the GI50 was 17.2 µM in test [1]; 17.6 µM in [2]; 24.9 µM in [3]; 20.3 µM in test [4]; 14.9 µM in [5]; 10.3 µM in test [6]. Besides, the figures for the GI50 in test [7], in test [8] and in [9] were 14.4 µM, 12700 nM and 22.3 µM, respectively. In addition, the TGI amounted to 32.5 µM in test [1]; 39.4 µM in test [2]; 55.7 µM in test [3]; 54.7 µM in test [4]; 34.3 µM in test [5]; 59.7 µM in test [6]. Moreover, the TGI in [7] came to 27.5 µM; in test [8], 37.2 µM; in test [9], 48.3 µM.

Consider `COc1ccc(-c2cncn2-c2ccc(OC)cc2)cc1`, for which the GI50 in [1] was 15.7 µM; in test [2], 17.5 µM; in [3], 19.3 µM; in test [4], 17.4 µM; in [5] it was 11.2 µM; in test [7], 21.3 µM. Further, the GI50 in [9] was 19.1 µM; in test [10], 9.06 µM. The TGI in [1] is 53.1 µM; in [2], 56 µM; in [3], 42.9 µM; in [4], 41.2 µM; in test [5], 29.2 µM; in [7] it was 60.4 µM. Also, the TGI came to 48.3 µM in test [9] and 26.2 µM in [10].

Regarding `Cc1ccc(C(O)c2cnc(C)n2Cc2ccccc2)cc1` (centres undefined), the TGI in test [1], in [2], in [3], in test [4], in test [5] and in test [6] was greater than 100 µM throughout. For the same compound, the TGI in test [7], in test [9] and in [10] was greater than 100 µM in each case.

Consider `C[C@@H]1CN(CC(=O)N2CC(C)(C)c3nc(CO)c(Cc4ccc(F)cc4)cc32)[C@@H](CN2CCOC[C@H]2C)CN1`, for which the GI50 is 23.6 µM in [1]; 25 µM in [2]; 75.5 µM in [3]; 37 µM in [4]; 6.85 µM in test [5]; 18.9 µM in test [6]. The GI50 in [7] was greater than 100 µM; in [8] it was 24400 nM; in [9] it was 51.8 µM; in test [10], 26.6 µM. Moreover, the TGI in test [1] is 65.8 µM; in [2], greater than 100 µM; in test [3] it was greater than 100 µM; in [4], greater than 100 µM; in test [5], 23.6 µM; in [6], 73.3 µM. In addition, the TGI in test [7] is greater than 100 µM; in [8], 77.9 µM; in test [9], greater than 100 µM; in test [10], 76.2 µM.

`C=C1C(=O)O[C@H]2[C@H]1CC/C(COC(=O)N1CCC[C@H]1C(=O)Nc1ccc(OC)c(C(N)=O)c1O)=C\CC[C@@]1(C)O[C@@H]21`: the GI50 in [1] was 2.39 µM; in test [2], 17.9 µM; in test [3], 61 µM; in test [4] it was 2.38 µM; in test [5], 2.07 µM; in test [6], 1.59 µM. The GI50 is 2.9 µM in [7], 2240 nM in [8], 5.44 µM in [9] and 1.59 µM in test [10]. For the same compound, the TGI was 7.66 µM in test [1]; greater than 100 µM in test [2]; greater than 100 µM in [3]; 9.55 µM in test [4]; 5.76 µM in [5]; 12.7 µM in [6]. For the same compound, the TGI in [7] amounted to 10.9 µM; in [8] it was 5.63 µM; in [9], 22.6 µM; in test [10] it was 4.83 µM.

As for `CC(=O)[O-].CC(=O)[O-].[NH2-].[Pt+2].c1ccc2cnccc2c1`, the GI50 was 30.3 µM in [1]; 60.4 µM in test [2]; 64.4 µM in test [3]; 11.3 µM in [4]; 4.83 µM in [5]; 2.26 µM in test [7]. For the same compound, the GI50 in test [8] was 1400 nM; in test [9] it was 47.7 µM; in [10], 9.62 µM. Moreover, the TGI was greater than 100 µM in test [1]; greater than 100 µM in [2]; greater than 100 µM in test [3]; 42.8 µM in [4]; 43.8 µM in test [5]; 13.4 µM in test [7]. For the same compound, the TGI in [8] was 27.3 µM; in test [9], greater than 100 µM; in test [10] it was 87.5 µM.

In the case of `C[C@@H]1COCCN1c1cc(C2(S(C)(=N)=O)CC2)nc(-c2ccnc3[nH]ccc23)n1` (some centres undefined), the GI50 in [1] was 2.01 µM; in [2], 2.77 µM; in test [3] it was 23.3 µM; in test [4], 0.528 µM; in test [5] it was 0.86 µM; in test [7], 0.592 µM. The GI50 in test [8] is 2350 nM; in test [9], 2.62 µM; in test [10], 4 µM. In addition, the TGI in [1] was 11 µM; in test [2], 22.1 µM; in test [3] it was 88.8 µM; in [4] it was 70.2 µM; in [5], 3.5 µM; in test [7], 4.3 µM. In addition, the TGI was 49.4 µM in [8], 34.3 µM in [9] and greater than 100 µM in test [10].
